In PMC6076408, “Differential modulation of human GABAC-ρ1 receptor by sulfur-containing compounds structurally related to taurine” (BMC Neuroscience, 2018):

Legend:
Type in all cases: cell-based
human GABAC-ρ1 receptor [1] = target: T1, human GABAC-ρ1 receptor (Homo sapiens, UniProt P24046); test: Two-microelectrode voltage-clamp: currents activated by GABA or SCC-tau in oocytes expressing GABAC-ρ1R; conditions: for Hill coefficient (nH) / EC50: agonist alone; for Hill coefficient (nH): dose-response relationship; for activation time of the currents (τact) / deactivation time (τdeac): currents activated by GABA, Hypo or Homo; for EC50: Xenopus laevis oocytes clamped at −60 mV
T1 construct: expressed in transfected cells; host or cells: Xenopus laevis oocytes (mRNA injection)
Description: (§1) All the animals were handled in accordance with guidelines of the National Institutes of Health Guide for Care and Use of Laboratory Animals and with the approval of the Institutional Animal Care and Use Committee of the National University of Mexico. We used Ethyl 3-aminobenzoate methanesulfonate (MS-222) at 0.17% for 30 min, to anesthetize the Xenopus laevis frogs. The oocytes were manually removed and enzymatically defolliculated at room temperature using collagenase type I (0.3 μg/μl) for 45 min. Later, oocytes were kept in Barth’s medium (in mM): 88, NaCl; 1, KCl; 0.33, […]; 0.41, CaCl2; 0.82, MgSO4; 2.4, NaHCO3; 5, HEPES; pH 7.4 and 0.1 mg/ml gentamicin sulfate. After 24 h, 0.5 μg/μl of human GABAC-ρ1R mRNA was injected in vegetal hemisphere of the oocyte, and electrophysiological recordings were obtained 2–3 days after injection.
(§2) Oocytes were placed in a chamber, with a volume of 500 μl, and impaled with two microelectrodes previously filled with 3 M KCl (0.5–2.5 MΩ) and clamped at − 60 mV. […] All recordings were done at 20–23 °C in a chamber continuously perfused at 5–10 ml/min of Ringer solution (in mM): 115, NaCl; 2, KCl; 1.8, CaCl2; 5, HEPES, pH 7.4. All drugs were purchased from SIGMA-ALDRICH (San Louis Missouri, USA). […] The pH of all solutions was adjusted to 7.4.
Results are reported as mean ± S.E. of the values obtained from several cells, each value being the average of measurements in different cells. Data from each experiment were collected from at least seven oocytes. Agonist concentration–response curves were constructed by measuring the maximum response evoked by each agonist concentration. […] The half-inhibitory concentration (IC50) of Homo was estimated by fitting the following equation: A=Amax/(1+10^[[agonist]-logEC50) . Differences among groups were statistically analyzed by ANOVA and Tukey–Kramer post-test, and were considered significant when P < 0.05. […] Differences between groups were statistically analyzed by ANOVA and a Tukey–Kramer post-test, and were considered significant at the level P < 0.05.

human GABAC-ρ1 receptor [2] = target: T1, human GABAC-ρ1 receptor; test: Voltage-clamp: modulation of GABA-induced currents by co-applied SCC-tau; conditions: for IC50: read-out: IC50 (decrease of GABA-activated current); for EC50: EC50 (potentiation of GABA current)
Description: as §1
as §2, with “Membrane currents elicited by GABA and SCC-tau were recorded using the two-microelectrode voltage-clamp technique. Oocytes” for “Oocytes”
(§3) Results are reported as mean ± S.E. of the values obtained from several cells, each value being the average of measurements in different cells. Data from each experiment were collected from at least seven oocytes. Agonist concentration–response curves were constructed by measuring the maximum response evoked by each agonist concentration. […] The half-inhibitory concentration (IC50) of Homo was estimated by fitting the following equation: A=Amax/(1+10^[[agonist]-logEC50) . Differences among groups were statistically analyzed by ANOVA and Tukey–Kramer post-test, and were considered significant when P < 0.05. Control responses to GABA were obtained before and after each drug application to account for possible shifts in the amplitude of the control current. To determine the time constants for the activation (τact) and deactivation (τdeac) of GABA-, Homo- and Hypo-currents responses, a decay function of the form: I(τ) = exp(− t/τ d) + C, where I is the current and t is time, was fit to the experimental data (Origin 6.0 software; Northampton, MA). Differences between groups were statistically analyzed by ANOVA and a Tukey–Kramer post-test, and were considered significant at the level P < 0.05.

human GABAC-ρ1 receptor [3] = target: T1, human GABAC-ρ1 receptor; test: Voltage-clamp: inhibition of GABA- and SCC-tau-induced currents by TPMPA and picrotoxin
Description: as §1
as §2, with “Membrane currents elicited by GABA and SCC-tau were recorded using the two-microelectrode voltage-clamp technique. Oocytes” for “Oocytes”
as §3

[4] = receptor activated by 3 µM GABA
[5] = receptor activated by 70 µM Homo
[6] = receptor activated by 3 mM Hypo

T1 sequence (P24046 22-479): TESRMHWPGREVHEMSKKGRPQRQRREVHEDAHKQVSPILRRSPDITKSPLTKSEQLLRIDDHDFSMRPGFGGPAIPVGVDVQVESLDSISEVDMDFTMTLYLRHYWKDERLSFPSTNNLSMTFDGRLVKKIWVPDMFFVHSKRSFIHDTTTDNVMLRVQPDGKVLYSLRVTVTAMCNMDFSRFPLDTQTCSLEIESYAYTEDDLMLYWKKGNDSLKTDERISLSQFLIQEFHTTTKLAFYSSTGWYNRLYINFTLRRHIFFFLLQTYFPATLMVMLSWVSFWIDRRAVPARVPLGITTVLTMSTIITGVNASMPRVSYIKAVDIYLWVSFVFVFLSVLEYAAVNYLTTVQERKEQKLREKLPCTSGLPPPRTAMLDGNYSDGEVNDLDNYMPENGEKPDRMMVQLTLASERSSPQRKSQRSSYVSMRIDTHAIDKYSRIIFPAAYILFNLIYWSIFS

Row | Compound | Hill coefficient (nH) (human GABAC-ρ1 receptor [1]) | activation time of the currents (τact) (human GABAC-ρ1 receptor [1]) [min] | deactivation time (τdeac) (human GABAC-ρ1 receptor [1]) [min] | EC50 (human GABAC-ρ1 receptor [1]) [µM] | IC50 (human GABAC-ρ1 receptor [3]; [4]) [µM] | IC50 (human GABAC-ρ1 receptor [3]; [5]) [µM] | IC50 (human GABAC-ρ1 receptor [3]; [6]) [µM] | further results
1 | NCCCC(=O)O [GABA, γ-aminobutyric acid] | 1.5 | 1 ± 0.2 | 1.7 ± 0.5 |  |  |  |  | 
2 | NCCCS(=O)(=O)O [Homo, 3-Aminopropane-1-sulfonic acid] | 1.0 | 1.8 ± 0.2 | 6.7 ± 2.2 | 70 ± 1.1 |  |  |  | IC50 (human GABAC-ρ1 receptor [2]; co-applied with 1.5 µM GABA): 40 ± 1 µM; IC50 (human GABAC-ρ1 receptor [2]; co-applied with 3 µM GABA): 90 ± 1.5 µM; IC50 (human GABAC-ρ1 receptor [2]; co-applied with 6 µM GABA): 410 ± 2.9 µM
3 | NCCS(=O)O [Hypo, 2-Aminoethanesulfinic acid] | 2.2 | 1.5 ± 0.1 | 3.4 ± 1.1 | 3000 ± 1500 |  |  |  | EC50 (human GABAC-ρ1 receptor [2]; co-applied with 1.5 µM GABA): 87 ± 1.5 µM; EC50 (human GABAC-ρ1 receptor [2]; co-applied with 3 µM GABA): 170 ± 1.7 µM; EC50 (human GABAC-ρ1 receptor [2]; co-applied with 6 µM GABA): 480 ± 2.1 µM
4 | O=S(=O)(O)CCO [IA, 2-hydroxyethanesulfonic acid] |  |  |  |  |  |  |  | effect on GABA-induced currents (human GABAC-ρ1 receptor [2]; co-application with GABA, data not shown): did not observe any effect; activation of current (effect on receptor) (human GABAC-ρ1 receptor [1]; compound perfused alone at the concentrations tested): did not show any affect
5 | CP(=O)(O)C1=CCNCC1 [TPMPA, Methyl(1,2,5,6-tetrahydropyridine-4-yl) phosphinic acid] |  |  |  |  | 1.2 ± 0.1 | 1.4 ± 0.1 | 2 ± 0.2 | 
6 | picrotoxin |  |  |  |  | 100 ± 0.1 | 105 ± 0.3 | 100 ± 0.8 | 
